# From US5447911A, “Ghilanten antimetastatic principle from the south american leech, Haementeria ghilianii” (Merrell Dow Pharmaceuticals Inc., priority 1994, dated 1995)
# Tested on: B16 melanoma F10 cells
# Test: Metastatic spread of B16-F10 melanoma cells to the lungs of C57/BL mice
# Type: in vivo
# Description: To confirm the anti-metastatic activity of the proteinaceous substances of this invention, 1×10^5 viable B16 melanoma F10 line cells were injected i.v. through the tail vein of C57/BL mice. The antimetastatic factor was then administered i.v. at -2, +2, +4 and +6 hours relative to the tumor innoculum at t=0 hours. At the end of 15 days, the animals were sacrificed and the number of metastatic foci in the lungs were quantitated. The results observed are summarized in Table 1 below, with n indicating the number of animals used in the test.
# B16 melanoma F10 cells (1 × 10^5 cells/animal) were injected i.v.
# into the tail vein of C57/Bl mice on day 0. Vehicle: 10 mM Hepes, 0.15M
# NaCl, pH 7.4 containing 10 mg/ml BSA; recombinantHirudin (25 antithrombin
# units) and FXa inhibitor (1-2 μg) were injected into the mice i.v. at
# -2, +2, +4, +6 hrs. after tumor cell innoculation. The animals were
# sacrificed at 14 days post tumor cell innoculation. The lungs were
# dissected, fixed, and the number of pulmonary metas tases were determined
# under a dissecting microscope. […]
# [1] = Table 1, recombinant hirudin 25 antithrombin units or FXa inhibitor 1-2 μg i.v. at -2, +2, +4, +6 hrs, versus vehicle control
substance,measurement,setting,value
Hirudin,No. of Metastatic Foci (Mean + S.E.; n = 6),"Table 1, lungs, recombinant hirudin 25 antithrombin units or FXa inhibitor 1-2 μg i.v. at -2, +2, +4, +6 hrs, 14 days post innoculation",198 ± 10
same,% Inhibition (metastatic foci),[1],0%
same,% Potentiation (metastatic foci),[1],21%
same,Effect on metastasis (in words),"administered -2, +2, +4 and +6 hours relative to tumor cell innoculation",caused a moderate increase in metastatic foci
